# Experimental data reported in patent US4368203A, “Antibiotics and derivatives thereof having β-lactamase inhibitory activity and production thereof” (priority 1977, dated 1983).
# Where two headings read alike, the source gives them in different places.
# Assays:
# Solubility = format: physicochemical; conditions: antibiotic (sodium salt); for Solubility in organic solvents: solvents named in the value
# Text: The results are as shown as below:
# The results are as shown below:
# [1] = test system: Staphylococcus aureus Smith; experiment: In vivo activity in intraperitoneally infected mice; set-up: species or system DDY male mice; conditions: for ED50: Staphylococcus aureus, sc, mice infected i.p. with 5×10^5 cells/mouse, subcutaneous injection just after infection, read-out: 50% curative dose (CD50); for Therapeutic effect in infected mice: mice infected with pathogenic Gram-positive bacteria
# Description: Soon after infection, an aqueous solution of the antibiotic PS-5 sodium salt preparation was subcutaneously injected.
# Activity of the antibiotic PS-7 obtained above was determined using mice infected with Staphylococcus aureus Smith at 5×10^5 cells a mouse intraperitoneally. Sodium salt of the antibiotic PS-7 was administered to the mice subcutaneously immediately after the infection.
# The tritylation product of antibiotic PS-6 was subcutaneously injected just after infection. The 50% curative dose on male DDY mice (SHIZUOKA) was 5.5 mg/kg.
# The tritylation product of antibiotic PS-7 was subcutaneously injected just after infection. The 50% curative dose on make DDY mice (SHIZUOKA) was 4.5 mg/kg.
# [2] = test system: Diplococcus pneumoniae Type III; experiment: MIC, broth dilution method; format: cell-based; conditions: Streptococcus pneumoniae; Table 7; no unit in the head; horse serum in the medium at 10%; read-out: Minimum inhibitory concentration
# Proteus vulgaris P-5 [3] = experiment: Potentiating and synergistic effect, pulp disc inhibition zone on agar plate; format: cell-based; conditions: for Diameter of inhibitory zone, No addition / Diameter of inhibitory zone, Cephaloridine-added: Table 8; for Diameter of inhibitory zone, No addition: medium without cephaloridine; for Diameter of inhibitory zone, Cephaloridine-added: cephaloridine in the agar
# Description: 10 ml of 2.5 folds diluted nutrient agar (pH 7.0) containing 50 μg/ml of penicillin G or cephaloridine was seeded with the β-lactamase producing and β-lactam-resistant microorganisms and poured in a 9 cm Petri dish to provide the bio-assay agar plate. […] A control assay plate was similarly prepared without penicillin G or cephaloridine. As reference antibiotics, 10,000 μg/ml of penicillin G or 20 μl of cephaloridine were disc-assayed under the same conditions.
# Cepholoridine was added to a 2.5-times diluted nutrient agar, pH 7.0 and the medium was inoculated with a β-lactam-producing strain that produceds β-lactamase. Ten ml of the medium was spread and solidified in a petri dish of 9 cm in diameter to prepare an assay plate. […] Each 20 μl of the solution and its 2- and 4-times diluted solutions was soaked in a pulp disc of 8 mm in diameter. To the surface of the above nutrient agar was placed the pulp disc and the size of the growth inhibitory zone around the disc was examined after incubation at 35° C. for 18 hours. […] In addition, for the comparison, a similar experiment was also performed with a pulp disk soaked with 20 μl of 10,000 μg/ml Penicillin G or Cepholoridine solution in place of the antibiotic PS-7.
# [4] = test system: Staphylococcus aureus FDA 209P; experiment: MIC, broth dilution method; format: cell-based; conditions: Staphylococcus aureus, FDA209P; Table 7; no unit in the head; read-out: Minimum inhibitory concentration
# [5] = test system: Staphylococcus aureus FDA 209P; experiment: MIC, broth dilution method; format: cell-based; conditions: FDA209P, Table 5, 35° C. 20 hours, read-out: Minimum inhibitory concentration
# [6] = test system: Diplococcus pneumoniae Type III; experiment: MIC, broth dilution method; format: cell-based; conditions: Streptococcus pneumoniae, 20 h; Table 5; 10% horse blood supplemented into the medium; read-out: Minimum inhibitory concentration
# [7] = test system: Bacillus subtilis ATCC 6633; experiment: MIC, broth dilution method; conditions: ATCC6633, 20 h, read-out: Minimum inhibitory concentration
# Enterobacter sp. E-8 = experiment: MIC, broth dilution method; conditions: SP.E8, 20 h, read-out: Minimum inhibitory concentration
# [8] = test system: Streptococcus pyogenes NY-5; experiment: MIC, broth dilution method; conditions: Streptococcus pyogenes, NY5, 20 h, read-out: Minimum inhibitory concentration
# [9] = test system: Staphylococcus aureus Rassell; experiment: MIC, broth dilution method; conditions: 20 h, read-out: Minimum inhibitory concentration
# [10] = test system: Enterobacter aerogenes E-19; experiment: MIC, broth dilution method; conditions: Klebsiella aerogenes, E19, 20 h, read-out: Minimum inhibitory concentration
# Proteus mirabilis P-6 = experiment: MIC, broth dilution method; conditions: P6, 20 h, read-out: Minimum inhibitory concentration
# Serratia marcescens S-18 = experiment: MIC, broth dilution method; conditions: S18, 20 h, read-out: Minimum inhibitory concentration
# Providencia sp. P-8 = experiment: MIC, broth dilution method; conditions: SP.P8, 20 h, read-out: Minimum inhibitory concentration
# Proteus sp. P-22 = experiment: MIC, broth dilution method; conditions: 20 h, read-out: Minimum inhibitory concentration
# Proteus rettgeri P-7 = experiment: MIC, broth dilution method; conditions: Providencia rettgeri, P7, 20 h, read-out: Minimum inhibitory concentration
# [11] = test system: Staphylococcus aureus Bx-1633; experiment: MIC, broth dilution method; conditions: BX1633, 20 h, read-out: Minimum inhibitory concentration
# Proteus vulgaris P-5 [12] = experiment: MIC, broth dilution method; conditions: Proteus vulgaris, P5, 20 h, read-out: Minimum inhibitory concentration
# [13] = disc x2 (2-times diluted PS-7 solution)
# [14] = disc x4 (4-times diluted PS-7 solution)
structure (smiles),measurement,setting,value
CCC1C(=O)N2C(C(=O)O)=C(SC=CNC(C)=O)CC12 (stereo not drawn) [Antibiotic PS-7],Solubility in water,Solubility,Soluble in water at pH6-9
same,Solubility in organic solvents,Solubility,"practically insoluble in benzene, acetone and ethyl acetate"
same,ED50,[1],7.5 mg/kg
same,Therapeutic effect in infected mice,[1],marked therapeutic effect
same,MIC,[2],< 0.19 µg/mL
same,"Diameter of inhibitory zone, No addition","Proteus vulgaris P-5 [3]; disc x1 (undiluted PS-7 solution, 50 μg/ml or 29 μg/ml, 20 μl)",0.0 mm
same,"Diameter of inhibitory zone, Cephaloridine-added","Proteus vulgaris P-5 [3]; disc x1 (undiluted PS-7 solution, 20 μl)",19.0 mm
same,"Diameter of inhibitory zone, Cephaloridine-added",Proteus vulgaris P-5 [3]; [13],15.0 mm
same,"Diameter of inhibitory zone, No addition",Proteus vulgaris P-5 [3]; [13],0.0 mm
same,"Diameter of inhibitory zone, Cephaloridine-added",Proteus vulgaris P-5 [3]; [14],11.0 mm
same,"Diameter of inhibitory zone, No addition",Proteus vulgaris P-5 [3]; [14],0.0 mm
same,MIC,[4],< 0.19 µg/mL
CC(=O)NCCSC1=C(C(=O)O)N2C(=O)C(C(C)C)C2C1 (stereo not drawn) [Antibiotic PS-6],MIC,[5],0.33 µg/mL
same,MIC,[6],0.17 µg/mL
same,MIC,[7],1.34 µg/mL
same,MIC,Enterobacter sp. E-8,12.5 µg/mL
same,Solubility in water,Solubility,soluble in water at pH 6 to 9
same,Solubility in organic solvents,Solubility,"substantially insoluble in benzene, acetone and ethylacetate"
same,MIC,[8],0.33 µg/mL
same,MIC,[9],1.34 µg/mL
same,ED50,[1],5.2 mg/kg
same,Therapeutic effect in infected mice,[1],marked therapeutic effect
same,MIC,[10],25 µg/mL
same,MIC,Proteus mirabilis P-6,12.5 µg/mL
same,MIC,Serratia marcescens S-18,50 µg/mL
same,MIC,Providencia sp. P-8,12.5 µg/mL
same,MIC,Proteus sp. P-22,12.5 µg/mL
same,zone of inhibition at 240 µg/mL,"Proteus vulgaris P-5 [3]; Proteus vulgaris, P5, Table 6, plate without penicillin G or cephaloridine, 8 mm disc, 20 μl, PS-6 240 μg/ml, reference antibiotics 10,000 μg/ml, 35° C. 18 hours, read-out: Inhibition zone, Control",14 mm
same,"Inhibition zone, with cephaloridine","Proteus vulgaris P-5 [3]; Table 6, agar containing 50 μg/ml of cephaloridine, disc 20 μl, PS-6 240 μg/ml, reference antibiotics 10,000 μg/ml",28.5 mm
same,"Inhibition zone, with penicillin G","Proteus vulgaris P-5 [3]; Table 6, agar containing 50 μg/ml of penicillin G, disc 20 μl, PS-6 240 μg/ml, reference antibiotics 10,000 μg/ml",30.0 mm
same,MIC,Proteus rettgeri P-7,6.25 µg/mL
same,MIC,[11],0.33 µg/mL
same,MIC,Proteus vulgaris P-5 [12],25 µg/mL
